Test results as given in patent US11273136B2, “Method for increasing protein content in milk of lactating cows” (neopharma Japan Co., Ltd., priority 2019, dated 2022).

System: lactating Holstein milk cows
Assay: Crossover feeding test of 5-ALA-supplemented total mixed ration on milk yield and milk composition of lactating cows
Type: in vivo
Text: Effects of ALAs on the milk composition of a lactating cow was studied. Six lactating Holstein milk cows (average body weight 698±18 kg, average milk production 24.1±1.6 kg/d, average days-in-milk (DIM) 209±34 days, and average number of lactations 2.9±0.4) were placed in a free stable. After a 7-day grace period, 6 cows were randomly assigned to section A and section B (each group n=3). Section A had, after a grace period, an ALA administration period of 14 days (ALA Consumption Group A), with an adjustment period of 7 days interposed, followed by an ALA non-administration period of 14 days (Control Group A), whereas Section B had, after a grace period, an ALA non-administration period of 14 days (Control Group B), with an adjustment period of 7 days interposed, followed by an ALA administration period of 14 days (ALA Consumption Group B), whereby the test was carried out by the crossover method. A total mixed ration (TMR) (see Table 2) which had been used was fed during the above grace period, adjustment period and ALA non-administration period, and a feed to which 10 mg of 5-ALA was added per kg of the total mixed ration (TMR) was fed during the ALA administration period.
5-ALA was provided by neopharma Japan Co., Ltd. Each feed and water were available at any time but feed consumption of each group on a dry base was 23.4 kg/day per cow in the control groups and 23.6 kg/day per cow in the ALA groups. Thus, the daily consumption of 5-ALA in the ALA groups was 0.329.6 mg to 0.347.1 mg/kg b.w./day. Each of the milk cows was milked at 09:00 and 17:00 and allowed to consume each feed at any time after milking.
Amounts of Milking from each cow were automatically recorded everyday by an auto milk recorder (manufactured by ORION MACHINERY CO., LTD.). Additionally, for each group of Section A and Section B, during the last 2 days in the ALA administration period of 14 days and the non-administration period of 14 days, 50 to 100 mL of milk was collected twice a day from cows of each period to use as milk samples for data analysis. The milk samples were preserved at −30° C. until the milk composition and the like were analyzed.
Using the above milk samples collected from each of the cows, the milk composition such as milk fat, proteins, casein, lactose, total solid (TS), solid not fat (SNF), milk urea nitrogen (MUN) and somatic cell count (SCC) was measured using a […] infrared spectroscopy (Milko-Scan, 133N, manufactured by Foss Electric, Hill-erod (Denmark)). Data of each cow were calculated as an average value of 4 milk samples collected for 2 days. For each group of Section A and Section B, the data average of the ALA administration periods (ALA Group A and ALA Group B) was shown under the item of ALA consumption groups, and the data average of the non-administration periods (Control Group A and Control Group B) was shown under the item of Control groups. The data were analyzed statistically as a crossover design using the mixing procedure of SPSS (PASW Statistics 18.0, manufactured by IBM). Statistical analysis of each result was carried out by mixed model and p<0.05(*) meant statistically significant difference. A tendency toward significance was considered at p<0.10.

[1] = 10 mg 5-ALA per kg TMR, 14 days, milk of last 2 days, ± standard error
[2] = 10 mg 5-ALA per kg TMR, 14 days, milk of last 2 days, ± standard error, p<0.05 vs control
[3] = feed to which 5-ALA was added, p<0.05

## NCC(=O)CCC(=O)O [5-ALA, 5-aminolevulinic acid]
10 mg 5-ALA per kg TMR fed for 14 days, crossover, n=6, ± standard error
  Milk yield: 23.78 ± 1.67 kg/day
[1]
  Milk composition: Fat: 4.42 ± 0.14%
  Milk composition: Lactose: 4.82 ± 0.02%
  Milk composition: Non-fat solid: 9.03 ± 0.17%
  Milk composition: Overall solid: 13.34 ± 0.28%
[2]
  Milk composition: Casein: 2.71 ± 0.09 a %
  Milk composition: Proteins: 3.51 ± 0.12 a %
Feed to which 5-ALA was added
  Lactose compared with Control Groups: no particular differences
  Milk fat compared with Control Groups: no particular differences
  Milk yield compared with Control Groups: no particular differences
  Non-fat solid compared with Control Groups: no particular differences
  Overall solid compared with Control Groups: no particular differences
[3]
  Casein content in milk compared with Control Groups: increased significantly
  Protein content in milk compared with Control Groups: increased significantly
